From patent US5728724A, “Benzothiophene compounds” (Eli Lilly and Company, priority 1996, dated 1998)
Where a name gives a salt, the structure may show the parent alone.

Assays:
[1] = test system: uterus of ovariectomized (OVX) rats; assay: Uterine weight in ovariectomized rats (post-menopausal model, agonist activity); format: in vivo, Sprague Dawley rats; details: daily for 4 days; for Uterine Weight (% increase vs. OVX): oral, hydrochloride
Protocol: (§1) In the examples illustrating the methods, a post-menopausal model was used in which effects of different treatments upon circulating lipids were determined.
(§2) Seventy-five day old female Sprague Dawley rats (weight range of 200 to 225g) were obtained from Charles River Laboratories (Portage, Mich.). The animals were either bilaterally ovariectomized (OVX) or exposed to a Sham surgical procedure at Charles River Laboratories, and then shipped after one week. Upon arrival, they were housed in metal hanging cages in groups of 3 or 4 per cage and had ad libitum access to food calcium content approximately 0.5%) and water for one week. Room temperature was maintained at 22.2°±1.7° C. with a minimum relative humidity of 40%. The photoperiod in the room was 12 hours light and 12 hours dark.
(§3) Dosing Regimen Tissue Collection. After a one week acclimation period (therefore, two weeks post-OVX) daily dosing with test compound was initiated. […] Animals were dosed daily for 4 days. Following the dosing regimen, animals were weighed and anesthetized with a ketamine: Xylazine (2:1, V:V) mixture and a blood sample was collected by cardiac puncture. The animals were then sacrificed by asphyxiation with CO2, the uterus was removed through a midline incision, and a wet uterine weight was determined.

[2] = test system: Uterine Eosinophil Peroxidase (EPO); assay: Uterine Eosinophil Peroxidase (EPO) Assay in ovariectomized rats; format: in vivo, Sprague Dawley rats; design: key: max velocity of A450 increase over a 15 s interval; details: oral, daily for 4 days, OVX rats
Protocol: as §1, §2, §3
Uterine Eosinophil Peroxidase (EPO) Assay. Uteri were kept at 4° C. until time of enzymatic analysis. The uteri were then homogenized in 50 volumes of 50 mM Tris buffer (pH-8.0) containing 0.005% Triton X-100. Upon addition of 0.01% hydrogen peroxide and 10 mM O-phenylenediamine (final concentrations) in Tris buffer, increase in absorbance was monitored for one minute at 450 nm. The presence of eosonophils in the uterus is an indication of estrogenic activity of a compound. The maximal velocity of a 15 second interval was determined over the initial, linear portion of the reaction curve.

Serum Cholesterol = assay: Serum cholesterol analysis in ovariectomized rats; format: in vivo, Sprague Dawley rats; details: daily for 4 days; for Serum Cholesterol (% decrease vs. OVX): oral, hydrochloride
Protocol: as §1, §2, §3
Cholesterol Analysis. Blood samples were allowed to clot at room temperature for 2 hours, and serum was obtained following centrifugation for 10 minutes at 3000 rpm. Serum cholesterol was determined using a Boehringer Mannheim Diagnostics high performance cholesterol assay. Briefly the cholesterol was oxidized to cholest-4-en-3-one and hydrogen peroxide. The hydrogen peroxide was then reacted with phenol and 4-aminophenazone in the presence of peroxidase to produce a p-quinone imine dye, which was read spectrophotemetrically at 500 nm. Cholesterol concentration was then calculated against a standard curve. The entire assay was automated using a Biomek Automated Workstation.

[3] = test system: MCF-7 breast adenocarcinoma cells; assay: MCF-7 Proliferation Assay (tritiated thymidine); format: cell-based; details: 48 hours, tritiated thymidine incorporation; for IC50: Homo sapiens, MCF7
Protocol: MCF-7 breast adenocarcinoma cells (ATCC HTB 22) were maintained in MEM (minimal essential medium, phenol red-free, Sigma, St. Louis, Mo.) supplimented with 10% fetal bovine serum (FBS) (V/V), L-glutamine (2 mM), sodium pyruvate (1 mM), HEPES {(N-[2-hydroxyethyl]piperazine-N'-[2-ethanesulfonic acid]10 mM}, non-essential amino acids and bovine insulin (1 ug/mL) (maintenance medium). Ten days prior to assay, MCF-7 cells were switched to maintenance medium supplemented with 10% dextran coated charcoal stripped fetal bovine serum (DCC-FBS) assay medium) in place of 10% FBS to deplete internal stores of steroids. MCF-7 cells were removed from maintenance flasks using cell dissociation medium (Ca++/Mg++ free HBSS (phenol red-free) supplemented with 10 mM HEPES and 2 mM EDTA). Cells were washed twice with assay medium and adjusted to 80,000 cells/mL. Approximately 100 μL (8,000 cells) were added to flat-bottom microculture wells (Costar 3596) and incubated at 37° C. in a 5% CO2 humidified incubator for 48 hours to allow for cell adherence and equilibration after transfer. Serial dilutions of drugs or DMSO as a diluent control were prepared in assay medium and 50 μL transferred to triplicate microcultures followed by 50 μL assay medium for a final volume of 200 μL. After an additional 48 hours at 37° C. in a 5% CO2 humidified incubator, microcultures were pulsed with tritiated thymidine (1 uCi/well) for 4 hours. Cultures were terminated by freezing at -70° C. for 24 hours followed by thawing and harvesting of microcultures using a Skatron Semiautomatic Cell Harvester. Samples were counted by liquid scintillation using a Wallac BetaPlace β counter. Results in Table 2 below show the IC50 for certain compounds of the present invention.

[4] = Rattus norvegicus, po, 96 h, 0.1 mg/kg, read-out: Uterine Weight (% increase vs. OVX)
[5] = Rattus norvegicus, po, 96 h, 1.0 mg/kg, read-out: Uterine Weight (% increase vs. OVX)
[6] = Rattus norvegicus, po, 96 h, 10.0 mg/kg, read-out: Uterine Weight (% increase vs. OVX)
[7] = Rattus norvegicus, po, 96 h, 0.1 mg/kg, OVX rats, read-out: Serum Cholesterol (% decrease vs. OVX)
[8] = Rattus norvegicus, po, 96 h, 1.0 mg/kg, OVX rats, read-out: Serum Cholesterol (% decrease vs. OVX)
[9] = Rattus norvegicus, po, 96 h, 10.0 mg/kg, OVX rats, read-out: Serum Cholesterol (% decrease vs. OVX)

Structure (SMILES) | change in vivo at 0.1 mg/kg [1, 4] [%] | change in vivo at 1 mg/kg [1, 5] [%] | change in vivo at 10 mg/kg [1, 6] [%] | Uterine EPO (V. max) ([2]; 0.1 mg/kg) | Uterine EPO (V. max) ([2]; 1.0 mg/kg) | Uterine EPO (V. max) ([2]; 10.0 mg/kg) | inhibition in vivo at 0.1 mg/kg (Serum Cholesterol; [7]) [%] | inhibition in vivo at 1 mg/kg (Serum Cholesterol; [8]) [%] | inhibition in vivo at 10 mg/kg (Serum Cholesterol; [9]) [%] | IC50 [3] [nM] | also measured
O=C(c1ccc(OCCN2CCCCC2)cc1)c1c(-c2ccc3ccccc3c2)sc2cc(O)ccc12 [Example 4, [2-(2-Naphthyl)-6-hydroxybenzothien-3-yl][4-[2-(1-piperdinyl)ethoxy]phenyl]methanone] | 72.7 | 46.8 | 59.5 | 12.3 | 42.9 | 35.7 | 48.1 | 54.5 | 63.6 | 80 | 
O=C(c1ccc(OCCN2CCCCC2)cc1)c1c(-c2cccs2)sc2cc(O)ccc12 [Example 7, [2-(2-Thienyl)-6-hydroxybenzothien-3-yl][4-[2-(1-piperdinyl)ethoxy]phenyl]methanone] | -1.7 | 32.4 | 46.9 | 1.8 | 4.5 | 8.4 | -18.6 | -0.9 | 51.4 | 20 | 
O=C(c1ccc(OCCN2CCCCC2)cc1)c1c(-c2cccc3ccccc23)sc2cc(O)ccc12 [Example 2, [2-(1-Naphthyl)-6-hydroxybenzothien-3-yl][4-[2-(1-piperdinyl)ethoxy]phenyl]methanone] | 28.8 | 28.1 | 21.2 | 4.5 | 4.8 | 3.6 | 56 | 60.6 | 70.6 | 0.8 | 
COc1ccc2c(C(=O)c3ccc(OCCN4CCCCC4)cc3)c(-c3cccs3)sc2c1 [Example 6, [2-(2-Thienyl)-6-methoxybenzothien-3-yl][4-[2-(1-piperdinyl)ethoxy]phenyl]methanone hydrochloride] |  |  |  |  |  |  |  |  |  |  | Uterine Weight (% increase vs. OVX) ([1]; 0.1 mg/kg): 3.4%; Uterine Weight (% increase vs. OVX) ([1]; 1.0 mg/kg): 4.2%; Uterine Weight (% increase vs. OVX) ([1]; 10.0 mg/kg): 9.5%; Uterine EPO (V. max) ([2]; 0.1 mg/kg, hydrochloride): 3.3; Uterine EPO (V. max) ([2]; 1.0 mg/kg, hydrochloride): 4.8; Uterine EPO (V. max) ([2]; 10.0 mg/kg, hydrochloride): 4.8; Serum Cholesterol (% decrease vs. OVX) (Serum Cholesterol; 0.1 mg/kg): 23.1%; Serum Cholesterol (% decrease vs. OVX) (Serum Cholesterol; 1.0 mg/kg): 35.8%; Serum Cholesterol (% decrease vs. OVX) (Serum Cholesterol; 10.0 mg/kg): 29.6%
O=C(c1ccc(OCCN2CCCCC2)cc1)c1c(-c2ccsc2)sc2cc(O)ccc12 [Example 9] | 8.8 | 1.2 | 54.3 | 0.9 | 3.3 | 2.4 | 0.6 | 29.8 | 31.9 | 10 | 
COc1ccc2c(C(=O)c3ccc(OCCN4CCCCC4)cc3)c(-c3ccsc3)sc2c1 [Example 8] | 6.6 | 10.3 | 21.3 | 3.0 | 0.9 | 4.2 | -23.4 | -3.5 | 35 |  | IC50, MCF-7 proliferation [3]: Not active at the concentration tested
O=C(c1ccc(OCCN2CCCCC2)cc1)c1c(Cc2ccc(O)cc2)sc2cc(O)ccc12 [Example 11, [2-(4-Hydroxyphenyl)methyl-6-hydroxybenzothien-3-yl][4-[2-(1-piperdinyl)ethoxy]phenyl]methanone] | 80.5 | 44.6 | 46.9 | 16.5 | 18.9 | 40.5 | 43 | 35.3 | 68.3 | 5 | change in vivo at 0.01 mg/kg ([1]; Rattus norvegicus, po, 96 h, 0.01 mg/kg, read-out: Uterine Weight (% increase vs. OVX)): 77.9%; Uterine EPO (V. max) ([2]; 0.01 mg/kg): 33.0; inhibition in vivo at 0.01 mg/kg (Serum Cholesterol; Rattus norvegicus, po, 96 h, 0.01 mg/kg, OVX rats, read-out: Serum Cholesterol (% decrease vs. OVX)): 41%
COc1ccc(Cc2sc3cc(OC)ccc3c2C(=O)c2ccc(OCCN3CCCCC3)cc2)cc1 [Example 10, [2-(4-Methoxyphenyl)methyl-6-methoxybenzothien-3-yl][4-[2-(1-piperdinyl)ethoxy]phenyl]methanone] | -5.6 | 39.2 | 45.2 | 6.6 | 46.2 | 65.4 | 10.3 | 49 | 50 |  | IC50, MCF-7 proliferation [3]: Not active at the concentration tested
